The text below walks through data of patent US11000033B2, “Ketone or oxime compound, and herbicide” (NISSAN CHEMICAL CORPORATION, priority 2014, dated 2021).

Common to all, as to assay type: in vivo
Series [1] has as its system corn. As to the kind of experiment: Test Example 4: effect on crop by soil treatment (symbol c). As to conditions: for c: corn, effect on crop grade: application herbicide amount 320 g/ha. In a few lines: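 Greenhouse culture at 25° C. to 30° C. followed sowing of seed in spots on sterilized diluvial soil with a soil cover close to 1.5 cm thick.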
Series [2] deals with Alopecurus myosuroides. As to the kind of experiment: Test Example 4: herbicidal effect by soil treatment (symbol J). In a few lines:
(§1)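 Seeds were sown in sterilized diluvial soil, covered with about 1.5 cm of soil, and the soil surface was sprayed with a water-diluted emulsion of the compound at a predetermined rate. Plants grew in a greenhouse at 25° C. to 30° C.; effects were scored visually 3 weeks after application.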

Series [3] deals with Abutilon theophrasti. As to the kind of experiment: Test Example 4: herbicidal effect by soil treatment (symbol M). The method, boiled down:
as §1

Series [4] concerns Digitaria ciliaris. Kind of series: Test Example 5: herbicidal effect by foliage application, plastic box (symbol F). As to conditions: 320 g/ha, 3 weeks after application. In a few lines:
(§2)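 Visual herbicidal score, taken three weeks post-application, of seedlings sprayed on the foliage with water-diluted emulsion at a predetermined amount; plants were 14 days old, greenhouse-raised at 25° C. to 30° C.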

Series [5] concerns Cyperus difformis. Kind of series: Test Example 3: herbicidal effect by foliage application, Wagner pot (symbol E). The conditions noted are these: application herbicide amount 320 g/ha. In a few lines: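 Scoring took place 3 weeks after application, using fixed criteria. Plants had been raised from seed for 14 days at 25 to 30 °C in submerged alluvial soil before a diluted emulsion of the test compound was sprayed uniformly on the leaves.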

Series [6] concerns Galium spurium. As to the kind of experiment: Test Example 5: herbicidal effect by foliage application, plastic box (symbol Q). The conditions noted are these: 320 g/ha, 3 weeks after application. The method, boiled down:
as §2

The test system of series [7] is Amaranthus retroflexus. As to the kind of experiment: Test Example 5: herbicidal effect by foliage application, plastic box (symbol N). The conditions noted are these: 320 g/ha, 3 weeks after application. In a few lines:
as §2

Series [8] relates to Abutilon theophrasti. As to the kind of experiment: Test Example 5: herbicidal effect by foliage application, plastic box (symbol M). As to conditions: 320 g/ha, 3 weeks after application. In a few lines:
as §2

Series [9] has as its system Scirpus juncoides. As to the kind of experiment: Test Example 1: herbicidal activity, application before weed generation in submerged conditions (symbol B). As to conditions: application herbicide amount 320 g/ha. The method, boiled down: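 Flooded alluvial soil (4 cm water) was mixed-sown with the three weed species, and 2.5-leaf rice seedlings were transplanted. On sowing day, a water-diluted emulsion at a predetermined rate was applied to the water surface. After 3 weeks in a 25–30 °C greenhouse, effect was scored 0–5.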

Setting [10] is: application herbicide amount 320 g/ha.

As for `Cc1cc(C)c(C2=C(O)CC(CC(=O)C3CCCCC3)C2=O)c(C)c1` (stereo not drawn) [2-030], the “c: corn, effect on crop grade” value in series [1] is 1 (Herbicidal ratio of 5% or higher and lower than 20%). Further, the “J: Alopecurus myosuroides, herbicidal effect grade” value (shortened to “J: Alopecurus myosuroides”) in [2] (setting [10]) is 3 (Herbicidal ratio of 40% or higher and lower than 70%). Moreover, the “M: Abutilon theophrasti, herbicidal effect grade” value (shortened to “M: Abutilon theophrasti”) in series [3] (setting [10]) and in [8] was 0 (Herbicidal ratio of 5% or lower (almost no effect)) throughout. In addition, the “F: Digitaria ciliaris, herbicidal effect grade” value (“F: Digitaria ciliaris” for short) in [4] is 4 (Herbicidal ratio of 70% or higher and lower than 90%). In addition, in [5], the “herbicidal effect on E, grade 0-5” value is on record as 0 (Herbicidal ratio of 5% or lower (almost no effect)). In addition, the “Q: Galium spurium, herbicidal effect grade” value (from here on “Q: Galium spurium”) in [6] was 0 (Herbicidal ratio of 5% or lower (almost no effect)). The “N: Amaranthus retroflexus, herbicidal effect grade” value (from here on “N: Amaranthus retroflexus”) in [7] is reported as 0 (Herbicidal ratio of 5% or lower (almost no effect)). Moreover, the “Herbicidal effect grade, B: Scirpus juncoides” value (from here on “Herbicidal effect grade, B”) in series [9] is recorded as 0 (Herbicidal ratio of 5% or lower (almost no effect)).
Take `CON=C(C)CC1CC(OC(=O)N(C)c2ccccc2)=C(c2c(C)cc(C)cc2C)C1=O` (stereo not drawn) [1-159]: the “c: corn, effect grade on crop” value in series [1] (320 g/ha) is 0 (Herbicidal ratio of 5% or lower (almost no effect)). For the same compound, the “J: Alopecurus myosuroides” value in [2] (320 g/ha) was 4 (Herbicidal ratio of 70% or higher and lower than 90%). In addition, the “M: Abutilon theophrasti” value is 0 (Herbicidal ratio of 5% or lower (almost no effect)) in series [3] (320 g/ha); 4 (Herbicidal ratio of 70% or higher and lower than 90%) in series [8]. In addition, the “F: Digitaria ciliaris” value in series [4] is listed as 5 (Herbicidal ratio of 90% or more (almost completely withered)). In addition, in series [5], the “herbicidal effect on E, grade 0-5” value was 4 (Herbicidal ratio of 70% or higher and lower than 90%). The “Q: Galium spurium” value in series [6] was 0 (Herbicidal ratio of 5% or lower (almost no effect)). Also, in series [7], the “N: Amaranthus retroflexus” value is 3 (Herbicidal ratio of 40% or higher and lower than 70%). Further, the “Herbicidal effect grade, B” value in [9] is on record as 0 (Herbicidal ratio of 5% or lower (almost no effect)).
As for `CCc1cc(C#C[Si](C)(C)C)cc(C)c1C1=C(O)CC(CC(C)=NOC)C1=O` (mixture of isomers) [6-008], the “c: corn, effect on crop grade” value in series [1] is 3 (Herbicidal ratio of 40% or higher and lower than 70%). Moreover, the “J: Alopecurus myosuroides” value in series [2] (setting [10]) was 4 (Herbicidal ratio of 70% or higher and lower than 90%). For the same compound, the “M: Abutilon theophrasti” value in [3] (setting [10]) and in [8] was 0 (Herbicidal ratio of 5% or lower (almost no effect)) in each case. For the same compound, the “F: Digitaria ciliaris” value in [4] is recorded as 0 (Herbicidal ratio of 5% or lower (almost no effect)). The “herbicidal effect on E, grade 0-5” value in [5] is reported as 5 (Herbicidal ratio of 90% or more (almost completely withered)). In [6], the “Q: Galium spurium” value is recorded as 0 (Herbicidal ratio of 5% or lower (almost no effect)). The “N: Amaranthus retroflexus” value in series [7] is given as 0 (Herbicidal ratio of 5% or lower (almost no effect)). In addition, the “Herbicidal effect grade, B” value in series [9] is 5 (Herbicidal ratio of 90% or more (almost completely withered)).
Consider `Cc1cc(C)c(C2=C(O)CC(CC(=O)Cc3ccccc3)C2=O)c(C)c1` (stereo not drawn) [2-015], for which the “c: corn, effect on crop grade” value in series [1] is listed as 0 (Herbicidal ratio of 5% or lower (almost no effect)). Also, the “J: Alopecurus myosuroides” value in [2] (setting [10]) was 2 (Herbicidal ratio of 20% or higher and lower than 40%). Also, the “M: Abutilon theophrasti” value in series [3] (setting [10]) is 0 (Herbicidal ratio of 5% or lower (almost no effect)); in series [8] it was 1 (Herbicidal ratio of 5% or higher and lower than 20%). Also, the “F: Digitaria ciliaris” value in [4] is 5 (Herbicidal ratio of 90% or more (almost completely withered)). In addition, in series [5], the “herbicidal effect on E, grade 0-5” value is recorded as 0 (Herbicidal ratio of 5% or lower (almost no effect)). Moreover, the “Q: Galium spurium” value in series [6] is reported as 0 (Herbicidal ratio of 5% or lower (almost no effect)). In series [7], the “N: Amaranthus retroflexus” value is recorded as 0 (Herbicidal ratio of 5% or lower (almost no effect)). Moreover, the “Herbicidal effect grade, B” value in [9] is 4 (Herbicidal ratio of 70% or higher and lower than 90%).
